From PubChem BioAssay (NCI)
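How tested: cells in 96-well plates exposed to compound for 48 hours at five concentrations. GI50 marks 50% less growth. TGI is the concentration that stops growth completely.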

Key:
Assay in all cases: inhibition of tumour cell growth, NCI panel, 48 h
KM12 colon = test system: KM12 colon
SK-OV-3 ovarian = test system: SK-OV-3 ovarian
SR leukemia = test system: SR leukemia
HL-60(TB) leukemia = test system: HL-60(TB) leukemia
SF-295 CNS = test system: SF-295 CNS
SK-MEL-5 melanoma = test system: SK-MEL-5 melanoma
NCI-H522 lung = test system: NCI-H522 lung
NCI-H23 lung = test system: NCI-H23 lung
EKVX NSCLC = test system: EKVX NSCLC
OVCAR-8 ovarian = test system: OVCAR-8 ovarian
M14 melanoma = test system: M14 melanoma
HCC-2998 colon = test system: HCC-2998 colon
RPMI-8226 leukemia = test system: RPMI-8226 leukemia
SN12C renal = test system: SN12C renal
MALME-3M melanoma = test system: MALME-3M melanoma
UACC-62 melanoma = test system: UACC-62 melanoma
A549 NSCLC = test system: A549 NSCLC
SF-268 CNS = test system: SF-268 CNS
OVCAR-3 ovarian = test system: OVCAR-3 ovarian
MCF7 breast = test system: MCF7 breast
A498 renal = test system: A498 renal
MDA-MB-231 breast = test system: MDA-MB-231 breast
BT-549 breast = test system: BT-549 breast
UO-31 renal = test system: UO-31 renal
CCRF-CEM leukemia = test system: CCRF-CEM leukemia
HCT-15 colon = test system: HCT-15 colon
SK-MEL-2 melanoma = test system: SK-MEL-2 melanoma
786-0 renal = test system: 786-0 renal
LOX IMVI melanoma = test system: LOX IMVI melanoma
ACHN renal = test system: ACHN renal
UACC-257 melanoma = test system: UACC-257 melanoma
HS 578T breast = test system: HS 578T breast
U251 CNS = test system: U251 CNS
NCI/ADR-RES ovarian = test system: NCI/ADR-RES ovarian
RXF 393 renal = test system: RXF 393 renal
K-562 leukemia = test system: K-562 leukemia
SNB-75 CNS = test system: SNB-75 CNS
HOP-92 NSCLC = test system: HOP-92 NSCLC
PC-3 prostate = test system: PC-3 prostate
SK-MEL-28 melanoma = test system: SK-MEL-28 melanoma
OVCAR-5 ovarian = test system: OVCAR-5 ovarian
COLO 205 colon = test system: COLO 205 colon
MDA-MB-435 = test system: MDA-MB-435
MOLT-4 leukemia = test system: MOLT-4 leukemia
HCT-116 colon = test system: HCT-116 colon
OVCAR-4 ovarian = test system: OVCAR-4 ovarian
CAKI-1 renal = test system: CAKI-1 renal
NCI-H226 lung = test system: NCI-H226 lung
HOP-62 NSCLC = test system: HOP-62 NSCLC
TK-10 renal = test system: TK-10 renal
T-47D breast = test system: T-47D breast
SNB-19 CNS = test system: SNB-19 CNS
IGROV1 ovarian = test system: IGROV1 ovarian
SW-620 colon = test system: SW-620 colon
NCI-H460 lung = test system: NCI-H460 lung
DU-145 prostate = test system: DU-145 prostate
HT29 colon = test system: HT29 colon
SF-539 CNS = test system: SF-539 CNS

Cc1[nH]c2ccccc2c1CCCO
GI50 (KM12 colon): > 100 µM
TGI (KM12 colon): > 100 µM
GI50 (SK-OV-3 ovarian): > 100 µM
TGI (SK-OV-3 ovarian): > 100 µM
GI50 (SR leukemia): > 100 µM
TGI (SR leukemia): > 100 µM
GI50 (HL-60(TB) leukemia): > 100 µM
TGI (HL-60(TB) leukemia): > 100 µM
GI50 (SF-295 CNS): > 100 µM
TGI (SF-295 CNS): > 100 µM
GI50 (SK-MEL-5 melanoma): > 100 µM
TGI (SK-MEL-5 melanoma): > 100 µM
GI50 (NCI-H522 lung): > 100 µM
TGI (NCI-H522 lung): > 100 µM
GI50 (NCI-H23 lung): > 100 µM
TGI (NCI-H23 lung): > 100 µM
GI50 (EKVX NSCLC): > 100 µM
TGI (EKVX NSCLC): > 100 µM
GI50 (OVCAR-8 ovarian): > 100 µM
TGI (OVCAR-8 ovarian): > 100 µM
GI50 (M14 melanoma): > 100 µM
TGI (M14 melanoma): > 100 µM
GI50 (HCC-2998 colon): > 100 µM
TGI (HCC-2998 colon): > 100 µM
GI50 (RPMI-8226 leukemia): > 100 µM
TGI (RPMI-8226 leukemia): > 100 µM
GI50 (SN12C renal): > 100 µM
TGI (SN12C renal): > 100 µM
GI50 (MALME-3M melanoma): > 100 µM
TGI (MALME-3M melanoma): > 100 µM
GI50 (UACC-62 melanoma): > 100 µM
TGI (UACC-62 melanoma): > 100 µM
GI50 (A549 NSCLC): > 100 µM
TGI (A549 NSCLC): > 100 µM
GI50 (SF-268 CNS): > 100 µM
TGI (SF-268 CNS): > 100 µM
GI50 (OVCAR-3 ovarian): > 100 µM
TGI (OVCAR-3 ovarian): > 100 µM
GI50 (MCF7 breast): > 100 µM
TGI (MCF7 breast): > 100 µM
GI50 (A498 renal): > 100 µM
TGI (A498 renal): > 100 µM
GI50 (MDA-MB-231 breast): > 100 µM
TGI (MDA-MB-231 breast): > 100 µM
GI50 (BT-549 breast): > 100 µM
TGI (BT-549 breast): > 100 µM
GI50 (UO-31 renal): 75.2 µM
TGI (UO-31 renal): > 100 µM
GI50 (CCRF-CEM leukemia): > 100 µM
TGI (CCRF-CEM leukemia): > 100 µM
GI50 (HCT-15 colon): > 100 µM
TGI (HCT-15 colon): > 100 µM
GI50 (SK-MEL-2 melanoma): > 100 µM
TGI (SK-MEL-2 melanoma): > 100 µM
GI50 (786-0 renal): > 100 µM
TGI (786-0 renal): > 100 µM
GI50 (LOX IMVI melanoma): > 100 µM
TGI (LOX IMVI melanoma): > 100 µM
GI50 (ACHN renal): > 100 µM
TGI (ACHN renal): > 100 µM
GI50 (UACC-257 melanoma): > 100 µM
TGI (UACC-257 melanoma): > 100 µM
GI50 (HS 578T breast): 54.9 µM
TGI (HS 578T breast): > 100 µM
GI50 (U251 CNS): > 100 µM
TGI (U251 CNS): > 100 µM
GI50 (NCI/ADR-RES ovarian): > 100 µM
TGI (NCI/ADR-RES ovarian): > 100 µM
GI50 (RXF 393 renal): > 100 µM
TGI (RXF 393 renal): > 100 µM
GI50 (K-562 leukemia): > 100 µM
TGI (K-562 leukemia): > 100 µM
GI50 (SNB-75 CNS): > 100 µM
TGI (SNB-75 CNS): > 100 µM
GI50 (HOP-92 NSCLC): > 100 µM
TGI (HOP-92 NSCLC): > 100 µM
GI50 (PC-3 prostate): > 100 µM
TGI (PC-3 prostate): > 100 µM
GI50 (SK-MEL-28 melanoma): > 100 µM
TGI (SK-MEL-28 melanoma): > 100 µM
GI50 (OVCAR-5 ovarian): > 100 µM
TGI (OVCAR-5 ovarian): > 100 µM
GI50 (COLO 205 colon): > 100 µM
TGI (COLO 205 colon): > 100 µM
GI50 (MDA-MB-435): > 100 µM
TGI (MDA-MB-435): > 100 µM
GI50 (MOLT-4 leukemia): > 100 µM
TGI (MOLT-4 leukemia): > 100 µM
GI50 (HCT-116 colon): > 100 µM
TGI (HCT-116 colon): > 100 µM
GI50 (OVCAR-4 ovarian): > 100 µM
TGI (OVCAR-4 ovarian): > 100 µM
GI50 (CAKI-1 renal): > 100 µM
TGI (CAKI-1 renal): > 100 µM
GI50 (NCI-H226 lung): > 100 µM
TGI (NCI-H226 lung): > 100 µM
GI50 (HOP-62 NSCLC): > 100 µM
TGI (HOP-62 NSCLC): > 100 µM
GI50 (TK-10 renal): > 100 µM
TGI (TK-10 renal): > 100 µM
GI50 (T-47D breast): > 100 µM
TGI (T-47D breast): > 100 µM
GI50 (SNB-19 CNS): > 100 µM
TGI (SNB-19 CNS): > 100 µM
GI50 (IGROV1 ovarian): 82.9 µM
TGI (IGROV1 ovarian): > 100 µM
GI50 (SW-620 colon): > 100 µM
TGI (SW-620 colon): > 100 µM
GI50 (NCI-H460 lung): > 100 µM
TGI (NCI-H460 lung): > 100 µM
GI50 (DU-145 prostate): > 100 µM
TGI (DU-145 prostate): > 100 µM
GI50 (HT29 colon): > 100 µM
TGI (HT29 colon): > 100 µM
GI50 (SF-539 CNS): > 100 µM
TGI (SF-539 CNS): > 100 µM
